PubChem BioAssay (NCI)
Values joined by “and” are separate entries in the source; they are usually repeats but may differ in a detail not shown here. Equal values may be shown once.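 Briefly, cells in 96-well plates were exposed to five compound concentrations for 48 h, and endpoints were estimated by linear interpolation. GI50 is the concentration that inhibits growth by half. TGI: total growth inhibition.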

Tests used:
Experiment in all cases: NCI anticancer screen, dose series, 48 h
HCC-2998 colon = test system: HCC-2998 colon
TK-10 renal = test system: TK-10 renal
MDA-N = test system: MDA-N
UO-31 renal = test system: UO-31 renal
HOP-92 NSCLC = test system: HOP-92 NSCLC
SW-620 colon = test system: SW-620 colon
NCI-H23 lung = test system: NCI-H23 lung
EKVX NSCLC = test system: EKVX NSCLC
MALME-3M melanoma = test system: MALME-3M melanoma
HCT-116 colon = test system: HCT-116 colon
SNB-75 CNS = test system: SNB-75 CNS
OVCAR-5 ovarian = test system: OVCAR-5 ovarian
SK-MEL-28 melanoma = test system: SK-MEL-28 melanoma
SF-539 CNS = test system: SF-539 CNS
LOX IMVI melanoma = test system: LOX IMVI melanoma
NCI-H226 lung = test system: NCI-H226 lung
K-562 leukemia = test system: K-562 leukemia
IGROV1 ovarian = test system: IGROV1 ovarian
BT-549 breast = test system: BT-549 breast
CAKI-1 renal = test system: CAKI-1 renal
ACHN renal = test system: ACHN renal
UACC-62 melanoma = test system: UACC-62 melanoma
OVCAR-8 ovarian = test system: OVCAR-8 ovarian
U251 CNS = test system: U251 CNS
SK-MEL-2 melanoma = test system: SK-MEL-2 melanoma
DU-145 prostate = test system: DU-145 prostate
SF-295 CNS = test system: SF-295 CNS
T-47D breast = test system: T-47D breast
HOP-62 NSCLC = test system: HOP-62 NSCLC
HT29 colon = test system: HT29 colon
M14 melanoma = test system: M14 melanoma
NCI/ADR-RES ovarian = test system: NCI/ADR-RES ovarian
MDA-MB-231 breast = test system: MDA-MB-231 breast
KM12 colon = test system: KM12 colon
OVCAR-4 ovarian = test system: OVCAR-4 ovarian
OVCAR-3 ovarian = test system: OVCAR-3 ovarian
A498 renal = test system: A498 renal
NCI-H522 lung = test system: NCI-H522 lung
MOLT-4 leukemia = test system: MOLT-4 leukemia
MDA-MB-435 = test system: MDA-MB-435
UACC-257 melanoma = test system: UACC-257 melanoma
SF-268 CNS = test system: SF-268 CNS
A549 NSCLC = test system: A549 NSCLC
HCT-15 colon = test system: HCT-15 colon
SN12C renal = test system: SN12C renal
SK-OV-3 ovarian = test system: SK-OV-3 ovarian
RXF 393 renal = test system: RXF 393 renal
PC-3 prostate = test system: PC-3 prostate
MCF7 breast = test system: MCF7 breast
HL-60(TB) leukemia = test system: HL-60(TB) leukemia
786-0 renal = test system: 786-0 renal
COLO 205 colon = test system: COLO 205 colon
RPMI-8226 leukemia = test system: RPMI-8226 leukemia
SNB-19 CNS = test system: SNB-19 CNS
NCI-H460 lung = test system: NCI-H460 lung
CCRF-CEM leukemia = test system: CCRF-CEM leukemia
SR leukemia = test system: SR leukemia
SK-MEL-5 melanoma = test system: SK-MEL-5 melanoma
HS 578T breast = test system: HS 578T breast

CC(=O)OC(/C=C/c1ccccc1)P1(=O)N(CC(C)(C)C)[C@@H]2CCCC[C@H]2N1CC(C)(C)C (stereo partly drawn)
TGI (HCC-2998 colon): 16.1 µM and 8.6 µM | GI50 (TK-10 renal): 10.1 µM and 4.82 µM | TGI (TK-10 renal): 22.4 µM and 16.6 µM | TGI (MDA-N): 23.1 µM and 21 µM | TGI (UO-31 renal): 19.6 µM and 17 µM | TGI (HOP-92 NSCLC): 26.4 µM | TGI (SW-620 colon): 31.3 µM and 20.7 µM | TGI (NCI-H23 lung): 20.3 µM and 17.1 µM | TGI (EKVX NSCLC): 19.1 µM and 18.9 µM | TGI (MALME-3M melanoma): 26.8 µM and 26.4 µM | TGI (HCT-116 colon): 15 µM and 13.4 µM | GI50 (SNB-75 CNS): 3.91 µM and 0.684 µM | TGI (SNB-75 CNS): 12.8 µM and 4.17 µM | TGI (OVCAR-5 ovarian): 23.4 µM and 23.5 µM | TGI (SK-MEL-28 melanoma): 34.4 µM and 28.5 µM | TGI (SF-539 CNS): 21.2 µM and 28.6 µM | TGI (LOX IMVI melanoma): 24 µM and 24.5 µM | TGI (NCI-H226 lung): 21.8 µM and 25.7 µM | TGI (K-562 leukemia): 21.7 µM and 20.6 µM | TGI (IGROV1 ovarian): 19.6 µM and 19.3 µM | TGI (BT-549 breast): 28.5 µM and 25.9 µM | TGI (CAKI-1 renal): 31.3 µM and 23.6 µM | TGI (ACHN renal): 21.6 µM and 20.3 µM | TGI (UACC-62 melanoma): 21.1 µM and 23.2 µM | TGI (OVCAR-8 ovarian): 19.7 µM and 21.6 µM | TGI (U251 CNS): 22.6 µM and 19.7 µM | TGI (SK-MEL-2 melanoma): 24.3 µM and 18.5 µM | TGI (DU-145 prostate): 23.7 µM and 23.5 µM | TGI (SF-295 CNS): 25.4 µM and 14.9 µM | GI50 (T-47D breast): 2.9 µM and 1.18 µM | TGI (T-47D breast): 9.04 µM and 6.4 µM | TGI (HOP-62 NSCLC): 38.3 µM and 30.3 µM | TGI (HT29 colon): 17.6 µM and 15.6 µM | TGI (M14 melanoma): 17.5 µM and 18.9 µM | TGI (NCI/ADR-RES ovarian): 20.6 µM and 18.3 µM | TGI (MDA-MB-231 breast): 24.4 µM and 20.4 µM | TGI (KM12 colon): 26.1 µM and 21.4 µM | TGI (OVCAR-4 ovarian): 20.5 µM and 19.7 µM | GI50 (OVCAR-3 ovarian): 8.41 µM and 3.47 µM | TGI (OVCAR-3 ovarian): 25.4 µM and 17.1 µM | TGI (A498 renal): 21.8 µM | TGI (NCI-H522 lung): 13.3 µM and 12.8 µM | TGI (MOLT-4 leukemia): 17.1 µM and 14.7 µM | TGI (MDA-MB-435): 28.8 µM and 22.1 µM | TGI (UACC-257 melanoma): 13.2 µM and 11.6 µM | TGI (SF-268 CNS): 23.3 µM and 22.7 µM | TGI (A549 NSCLC): 17.3 µM and 18.5 µM | TGI (HCT-15 colon): 20.9 µM and 17.6 µM | TGI (SN12C renal): 22.6 µM and 21.6 µM | TGI (SK-OV-3 ovarian): 37.4 µM and 25.7 µM | TGI (RXF 393 renal): 22 µM and 14.5 µM | TGI (PC-3 prostate): 12.1 µM and 10.1 µM | TGI (MCF7 breast): 16 µM and 17.5 µM | TGI (HL-60(TB) leukemia): 21.6 µM and 18.7 µM | TGI (786-0 renal): 21.4 µM and 21.1 µM | TGI (COLO 205 colon): 13.2 µM and 10.8 µM | TGI (RPMI-8226 leukemia): 12.1 µM | TGI (SNB-19 CNS): 23.5 µM and 24.2 µM | TGI (NCI-H460 lung): 21.1 µM and 19 µM | TGI (CCRF-CEM leukemia): 47.8 µM and 34.1 µM | TGI (SR leukemia): 19.5 µM and 14.5 µM | TGI (SK-MEL-5 melanoma): 17.4 µM and 18.7 µM | TGI (HS 578T breast): 24.5 µM and 27.1 µM
